From publication PMC12165799, “Antimicrobial peptide developed with machine learning sequence optimization targets drug resistant Staphylococcus aureus in mice” (The Journal of Clinical Investigation, 2025)
Converted amounts (≈) assume the structure as drawn. Read-outs that look alike come from different tables or passages of the source.

Columns and labels:
S. aureus isolates [1] = experiment: microbe, parasite or virus in culture; conditions: Staphylococcus aureus
Procedure: (§1) 305 Minimal inhibitory concentration (MIC) assay
(§2) 306 To determine the minimum concentration of peptide that inhibits the growth of bacteria,
(§3) 307 termed as the minimal inhibitory concentration (MIC), we used the broth microdilution method
(§4) 308 described by the Clinical and Laboratory Standards Institute (4). We made serial dilutions of 10×
(§5) 309 concentrated peptides (10 µl) in duplicate in 96-well plates (Cat no. 3595, Corning, NY, USA).
(§6) 310 We added 90 µl of logarithmic-phase bacteria at 1 × 10^6 CFU/ml (in TSB medium) to the peptides
(§7) 311 and then incubated the plates at 37°C for 18 hours. We determined the MIC using OD600
(§8) 312 measurements taken on a Spectra Max i3x spectrophotometer (Molecular Devices, CA, USA).

S. aureus MW2 membrane = experiment: Membrane depolarization, DiBAC4(3); type: cell-based, Staphylococcus aureus; conditions: S. aureus MW2, 32 μg/mL
Procedure: 466 Membrane depolarization
467 We measured bacterial membrane potential using an established protocol with minor
468 modifications (9). We prepared an exponential phase culture of S. aureus MW2 in fresh TSB
469 medium, washed the culture two times in PBS, and resuspended it in a double volume of PBS. To
470 energize the bacterial cells, we added 25 mM of glucose for 15 mins at 37°C, followed by 500 nM
471 of DiBAC4(3) (bis-(1,3-dibutylbarbituric acid) trimethine oxonol) (Thermo Fisher Scientific, ON,
472 Canada). DiBAC4(3) is a potential-sensitive probe that enters depolarized cells, binds to
474 this bacterial culture per well in a black, clear bottomed 96-well plate (Cat. no. 3904, Corning,
475 NY, USA) and monitored the fluorescence using a SpectraMax i3x (Molecular Devices, CA, USA)
476 for 20 min, with excitation at 485 nm and emission at 520 nm, until the baseline stabilized. Then
477 we added 10 µl of serially diluted peptide solutions and recorded the fluorescence for another 40
478 min. We included triton X-100 (1%) as a positive control.

[2] = test system: S. aureus MW2 established biofilm; experiment: Fluorescence microscopy of established biofilms, live/dead staining; type: cell-based, Staphylococcus aureus; conditions: 32 μg/mL, SYTO9 / propidium iodide
Procedure: 369 aureus MW2 (adjusted to 1 × 10^6 CFU/ml) in TSB medium (supplemented with 0.2% glucose)
370 from overnight grown cultures. We added 100 µl of bacterial culture to flat-bottomed 96-well
371 polystyrene microtiter plates (Cat no. 3595, Corning, NY, USA). We then incubated the plates at
372 37°C for 24 hours in static conditions to allow biofilm formation. After incubation, we carefully
373 pipetted out the TSB medium and washed the wells with PBS (Gibco, MD, USA) to remove
374 loosely attached planktonic cells. We treated the established biofilms in each well with 10 µl of
375 serially diluted 10× peptide solution, followed by the addition of 90 μl TSB medium
376 (supplemented with 0.2% glucose). We incubated the plates for another 24 h at 37°C before
377 processing biomass and live-cell contents. We calculated the concentration of peptide that disrupts
378 50% of established biofilms (MBEC50).
380 Fluorescence microscopy of CIT-8-treated S. aureus MW2 established biofilms
381 We prepared exponential phase cultures of S. aureus MW2 and adjusted the bacterial count
382 to 1 × 10^6 CFU/ml in fresh TSB medium. To establish biofilms, we added 200 µl of the bacterial
383 culture to the chambers of Millicell EZ Slides (Millipore Sigma, MA, USA) and maintained them
384 at 37°C for 24 hours under static conditions (8). After incubation, we carefully removed the TSB […]
We calculated the percent hemolysis, […]

S. aureus isolates [3] = test system: S. aureus isolates
Procedure: as §1, §2, §3, §4, §5, §6, §7, §8

[4] = HPLC retention time on C18 reverse-phase column; type: physicochemical
Excerpt: Table 1 Physical parameters and minimal inhibitory concentrations of citropin 1.1-derived peptides against S. aureus MW2 | column: rT^D (min)

HepG2 cells = experiment: Mammalian cell cytotoxicity assay
Procedure: 410 the HepG2 cells at 37°C in 5% CO2 in Dulbecco’s Modified Eagle Medium (DMEM) (Gibco, MA,
We harvested and resuspended cells in fresh DMEM

[5] = S. aureus BF1 (clinical isolate)
[6] = S. aureus BF2 (clinical isolate)
[7] = S. aureus BF3 (clinical isolate)
[8] = S. aureus BF4 (clinical isolate)
[9] = S. aureus BF5 (clinical isolate)
[10] = S. aureus BF6 (clinical isolate)
[11] = S. aureus BF7 (clinical isolate)
[12] = S. aureus BF8 (clinical isolate)
[13] = S. aureus BF9 (clinical isolate)
[14] = S. aureus BF10 (clinical isolate)
[15] = S. aureus BF11 (clinical isolate)

Question: Which MIC (S. aureus isolates [1]; MRSA, S. aureus JE2 (MRSA)) does the source give for `CN[C@H](CC(C)C)C(=O)N[C@H]1C(=O)N[C@@H](CC(N)=O)C(=O)N[C@H]2C(=O)N[C@H]3C(=O)N[C@H](C(=O)N[C@H](C(=O)O)c4cc(O)cc(O)c4-c4cc3ccc4O)[C@H](O)c3ccc(c(Cl)c3)Oc3cc2cc(c3O[C@@H]2O[C@H](CO)[C@@H](O)[C@H](O)[C@H]2O[C@H]2C[C@](C)(N)[C@H](O)[C@H](C)O2)Oc2ccc(cc2Cl)[C@H]1O` [Vancomycin, reference compound] here?
Answer: Its MIC is 1 µg/mL (≈ 0.69 µM).

Question: What about the MIC (S. aureus isolates [1]; [5]) of the same compound?
Answer: Its MIC is 0.5 µg/mL (≈ 0.345 µM).

Question: What about the MIC (S. aureus isolates [1]; [6]) of the same compound?
Answer: Its MIC is 2 µg/mL (≈ 1.38 µM).

Question: What about the MIC (S. aureus isolates [1]; [7]) of the same compound?
Answer: Its MIC is 1 µg/mL (≈ 0.69 µM).

Question: What about the MIC (S. aureus isolates [1]; [8]) of the same compound?
Answer: The MIC was 2 µg/mL (≈ 1.38 µM).

Question: And the MIC (S. aureus isolates [1]; [9])?
Answer: Its MIC is 1 µg/mL (≈ 0.69 µM).

Question: What about the MIC (S. aureus isolates [1]; [10]) of the same compound?
Answer: Its MIC is 1 µg/mL (≈ 0.69 µM).

Question: What about the MIC (S. aureus isolates [1]; [11]) of the same compound?
Answer: Its MIC is 1 µg/mL (≈ 0.69 µM).

Question: What about the MIC (S. aureus isolates [1]; [12]) of the same compound?
Answer: The MIC was 2 µg/mL (≈ 1.38 µM).

Question: And the MIC (S. aureus isolates [1]; [13])?
Answer: Its MIC is 0.5 µg/mL (≈ 0.345 µM).

Question: And the MIC (S. aureus isolates [1]; [14])?
Answer: Its MIC is 2 µg/mL (≈ 1.38 µM).

Question: And the MIC (S. aureus isolates [1]; [15])?
Answer: The MIC was 2 µg/mL (≈ 1.38 µM).

Question: What about the MIC (S. aureus isolates [1]; VISA, S. aureus AR0215 (VISA)) of the same compound?
Answer: Its MIC is 2 µg/mL (≈ 1.38 µM).

Question: What about the MIC (S. aureus isolates [1]; VISA, S. aureus AR0216 (VISA)) of the same compound?
Answer: Its MIC is 4 µg/mL (≈ 2.76 µM).

Question: What about the MIC (S. aureus isolates [1]; VISA, S. aureus AR0217 (VISA)) of the same compound?
Answer: The MIC was 2 µg/mL (≈ 1.38 µM).

Question: What about the MIC (S. aureus isolates [1]; VISA, S. aureus AR0219 (VISA)) of the same compound?
Answer: Its MIC is over 4 µg/mL.

Question: What about the MIC (S. aureus isolates [1]; VISA, S. aureus AR0225 (VISA)) of the same compound?
Answer: The MIC was 2 µg/mL (≈ 1.38 µM).

Question: And the MIC (S. aureus isolates [1]; VRSA, S. aureus VRS1 (VRSA))?
Answer: The MIC was over 4 µg/mL.

Question: Which results are given for H-GLFKVIKKLLKVI-NH2 [CIT-8]?
Answer: Membrane depolarization, DIBAC4(3) fluorescence (S. aureus MW2 membrane): rapid increase in DIBAC4(3) fluorescence; Live/dead staining of established biofilm [2]: high proportion of dead cells; MIC (S. aureus isolates [3]; S. aureus AR0215 (VISA)): 4 µg/mL; MIC (S. aureus isolates [3]; S. aureus AR0216 (VISA)): 8 µg/mL; MIC (S. aureus isolates [3]; S. aureus AR0217 (VISA)): 4 µg/mL; MIC (S. aureus isolates [3]; S. aureus AR0219 (VISA)): 8 µg/mL; MIC (S. aureus isolates [3]; S. aureus AR0225 (VISA)): 4 µg/mL; MIC (S. aureus isolates [3]; [5]): 4 µg/mL; MIC (S. aureus isolates [3]; [6]): 8 µg/mL; MIC (S. aureus isolates [3]; [7]): 8 µg/mL; MIC (S. aureus isolates [3]; [8]): 4 µg/mL; MIC (S. aureus isolates [3]; [9]): 4 µg/mL; MIC (S. aureus isolates [3]; [10]): 4 µg/mL; MIC (S. aureus isolates [3]; [11]): 4 µg/mL; MIC (S. aureus isolates [3]; [12]): 4 µg/mL; MIC (S. aureus isolates [3]; [13]): 4 µg/mL; MIC (S. aureus isolates [3]; [14]): 4 µg/mL; MIC (S. aureus isolates [3]; [15]): 4 µg/mL; MIC (S. aureus isolates [3]; S. aureus JE2 (MRSA)): 4 µg/mL; MIC (S. aureus isolates [3]; S. aureus VRS1 (VRSA)): 4 µg/mL; MIC against various VRSA, MRSA, VISA, and S. aureus clinical isolates (S. aureus isolates [3]; range over the isolates of Table 3): 4 to 8 µg/mL; rT (HPLC retention time) [4]: 22.465 min; HepG2 cell viability, Sup. Fig. 4B (HepG2 cells; 4 μg/ml, replicate 1): 110.665; HepG2 cell viability, Sup. Fig. 4B (HepG2 cells; 4 μg/ml, replicate 2): 94.3717; HepG2 cell viability, Sup. Fig. 4B (HepG2 cells; 4 μg/ml, replicate 3): 107.525; HepG2 cell viability, Sup. Fig. 4B (HepG2 cells; 8 μg/ml, replicate 1): 104.83; HepG2 cell viability, Sup. Fig. 4B (HepG2 cells; 8 μg/ml, replicate 2): 93.4852; HepG2 cell viability, Sup. Fig. 4B (HepG2 cells; 8 μg/ml, replicate 3): 105.572; HepG2 cell viability, Sup. Fig. 4B (HepG2 cells; 16 μg/ml, replicate 1): 122.471; HepG2 cell viability, Sup. Fig. 4B (HepG2 cells; 16 μg/ml, replicate 2): 104.62; HepG2 cell viability, Sup. Fig. 4B (HepG2 cells; 16 μg/ml, replicate 3): 109.473; HepG2 cell viability, Sup. Fig. 4B (HepG2 cells; 32 μg/ml, replicate 1): 107.545; HepG2 cell viability, Sup. Fig. 4B (HepG2 cells; 32 μg/ml, replicate 2): 100.768; HepG2 cell viability, Sup. Fig. 4B (HepG2 cells; 32 μg/ml, replicate 3): 106.994; HepG2 cell viability, Sup. Fig. 4B (HepG2 cells; 64 μg/ml, replicate 1): 70.5897; HepG2 cell viability, Sup. Fig. 4B (HepG2 cells; 64 μg/ml, replicate 2): 64.1784; HepG2 cell viability, Sup. Fig. 4B (HepG2 cells; 64 μg/ml, replicate 3): 64.2134; HepG2 cell viability, Sup. Fig. 4B (HepG2 cells; 128 μg/ml, replicate 1): 32.858; HepG2 cell viability, Sup. Fig. 4B (HepG2 cells; 128 μg/ml, replicate 2): 28.9912; HepG2 cell viability, Sup. Fig. 4B (HepG2 cells; 128 μg/ml, replicate 3): 25.6954; LD50 (concentration needed to kill 50% of HEPG2 cells) (HepG2 cells; human liver-derived HEPG2 cells): 96 µg/mL
